Results as given in ChEMBL document CHEMBL5653631, “A Potent and Selective ULK1 Inhibitor Suppresses Autophagy and Sensitizes Cancer Cells to Nutrient Stress” (iScience, 2018).
Values belong to the compound of their own block, whether it stands above or below them.

Assays:
[1] = target: Proto-oncogene tyrosine-protein kinase receptor Ret (Homo sapiens) (UniProt P07949); experiment: Inhibition of human recombinant RET at 500 nM related to control ULK1
[2] = target: Ribosomal protein S6 kinase alpha-6 (Homo sapiens) (UniProt Q9UK32); experiment: Inhibition of human recombinant RSK4 at 500 nM related to control ULK1
[3] = target: Protein kinase C eta type (Homo sapiens) (UniProt P24723); experiment: Inhibition of human recombinant PKCH at 40 nM in presence of ATP by radiometric assay relative to control
[4] = target: T1, Bone morphogenetic protein receptor type-2 (Homo sapiens) (UniProt Q13873); experiment: Inhibition of human recombinant BMPR2 at 40 nM related to control ULK1
T1 sequence (whole entry): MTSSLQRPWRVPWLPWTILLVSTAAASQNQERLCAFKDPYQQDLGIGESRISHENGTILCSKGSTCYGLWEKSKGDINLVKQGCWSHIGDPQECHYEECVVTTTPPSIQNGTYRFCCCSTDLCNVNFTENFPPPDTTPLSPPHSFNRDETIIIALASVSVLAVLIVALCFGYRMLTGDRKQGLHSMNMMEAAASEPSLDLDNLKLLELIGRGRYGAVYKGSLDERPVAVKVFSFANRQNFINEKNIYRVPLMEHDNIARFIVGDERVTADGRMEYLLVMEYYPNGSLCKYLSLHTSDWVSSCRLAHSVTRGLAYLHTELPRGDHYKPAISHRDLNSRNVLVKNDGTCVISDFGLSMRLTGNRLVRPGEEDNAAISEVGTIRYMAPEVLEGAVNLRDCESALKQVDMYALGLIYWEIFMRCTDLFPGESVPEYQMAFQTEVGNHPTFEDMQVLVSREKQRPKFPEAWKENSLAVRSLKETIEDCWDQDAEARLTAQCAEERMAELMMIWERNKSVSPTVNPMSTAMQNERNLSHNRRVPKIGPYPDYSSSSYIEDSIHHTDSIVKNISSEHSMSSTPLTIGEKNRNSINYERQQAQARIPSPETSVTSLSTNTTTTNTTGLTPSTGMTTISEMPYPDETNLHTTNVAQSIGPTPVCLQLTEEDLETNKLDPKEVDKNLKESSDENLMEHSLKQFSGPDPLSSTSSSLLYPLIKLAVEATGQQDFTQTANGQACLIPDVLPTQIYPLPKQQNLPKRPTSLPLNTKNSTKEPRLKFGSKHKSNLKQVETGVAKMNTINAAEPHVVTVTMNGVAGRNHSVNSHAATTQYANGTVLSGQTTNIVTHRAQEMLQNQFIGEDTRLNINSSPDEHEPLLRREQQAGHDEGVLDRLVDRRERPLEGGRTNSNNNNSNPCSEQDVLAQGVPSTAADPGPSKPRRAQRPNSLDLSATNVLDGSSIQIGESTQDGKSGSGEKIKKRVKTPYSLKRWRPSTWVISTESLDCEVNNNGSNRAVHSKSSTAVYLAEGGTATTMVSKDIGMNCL

[5] = target: T2, Serine/threonine-protein kinase TAO1 (Homo sapiens) (UniProt Q7L7X3); experiment: Inhibition of human recombinant TAO1 at 15 nM in presence of ATP by radiometric assay relative to control
T2 sequence (whole entry): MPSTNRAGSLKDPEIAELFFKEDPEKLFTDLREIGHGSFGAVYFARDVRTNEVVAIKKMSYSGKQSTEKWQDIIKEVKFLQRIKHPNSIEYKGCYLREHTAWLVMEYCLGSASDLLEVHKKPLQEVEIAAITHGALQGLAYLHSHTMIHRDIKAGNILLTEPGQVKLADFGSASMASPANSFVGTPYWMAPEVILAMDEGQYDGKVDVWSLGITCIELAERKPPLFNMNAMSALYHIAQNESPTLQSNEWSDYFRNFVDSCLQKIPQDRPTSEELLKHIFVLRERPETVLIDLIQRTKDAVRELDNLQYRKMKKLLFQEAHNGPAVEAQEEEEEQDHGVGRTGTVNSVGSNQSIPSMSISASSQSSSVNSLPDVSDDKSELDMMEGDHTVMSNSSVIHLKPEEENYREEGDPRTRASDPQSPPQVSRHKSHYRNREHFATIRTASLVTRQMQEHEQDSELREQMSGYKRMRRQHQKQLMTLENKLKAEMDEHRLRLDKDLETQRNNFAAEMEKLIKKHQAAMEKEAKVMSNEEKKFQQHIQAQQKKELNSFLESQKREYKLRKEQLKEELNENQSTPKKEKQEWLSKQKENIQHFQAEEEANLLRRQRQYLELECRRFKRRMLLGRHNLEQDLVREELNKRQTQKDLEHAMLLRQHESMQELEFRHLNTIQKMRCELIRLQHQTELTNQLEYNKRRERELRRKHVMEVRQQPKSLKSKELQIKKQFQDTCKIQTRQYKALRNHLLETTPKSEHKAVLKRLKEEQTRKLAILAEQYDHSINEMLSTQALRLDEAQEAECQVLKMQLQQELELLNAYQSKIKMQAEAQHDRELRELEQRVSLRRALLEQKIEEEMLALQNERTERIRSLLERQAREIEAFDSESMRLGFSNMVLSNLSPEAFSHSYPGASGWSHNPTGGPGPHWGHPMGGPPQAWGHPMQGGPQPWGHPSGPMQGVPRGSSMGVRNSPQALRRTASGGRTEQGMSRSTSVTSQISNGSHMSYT

[6] = target: Casein kinase I isoform gamma-1 (Homo sapiens) (UniProt Q9HCP0); experiment: Inhibition of human recombinant CK1g1 at 15 nM related to control ULK1
[7] = target: Activin receptor type-2A (Homo sapiens) (UniProt P27037); experiment: Inhibition of human recombinant ACTR2 at 15 nM in presence of ATP by radiometric assay relative to control

fold change (FC) [1]: 0.04 | fold change (FC) [2]: 0.45
Structure (SMILES): CNC(=O)c1ccccc1Oc1nc(Nc2cc(OC)c(OC)c(OC)c2)ncc1Br

inhibition [3]: 0% | fold change (FC) [4]: 0.08
Structure (SMILES): O=C(N[C@@H](C1CC1)C(F)(F)F)c1cc(-c2cnn3cc(-c4ccc(F)cc4)cnc23)cs1

inhibition [5]: 0% | fold change (FC) [6]: 0 | inhibition [7]: 4%
Structure (SMILES): CC(C)[C@H](NC(=O)c1cc(-c2cnn3cc(-c4ccc(OCCN5CCCCC5)cc4)cnc23)cs1)C(F)(F)F
